Key:
Type in all cases: functional
[1] = system: Staphylococcus aureus; experiment: Antibacterial activity against methicillin-susceptible Staphylococcus aureus by agar dilution method
[2] = system: Staphylococcus aureus; experiment: Antibacterial activity against methicillin-resistant Staphylococcus aureus by agar dilution method
[3] = system: Staphylococcus aureus; experiment: Antibacterial activity against Staphylococcus aureus ATCC 25923 by agar dilution method in presence of human plasma; settings: ATCC 25923, Plasma
[4] = system: Staphylococcus aureus; experiment: Antibacterial activity against Staphylococcus aureus ATCC 25923 by agar dilution method
[5] = system: Haemophilus influenzae; experiment: Antibacterial activity against Haemophilus influenzae isolate 280 by agar dilution method
[6] = system: Streptococcus pneumoniae; experiment: Antibacterial activity against Streptococcus pneumoniae by agar dilution method
[7] = system: Haemophilus influenzae; experiment: Antibacterial activity against Haemophilus influenzae isolate 282 by agar dilution method
[8] = system: Enterococcus; experiment: Antibacterial activity against vancomycin-resistant Enterococcus by agar dilution method
[9] = system: Moraxella catarrhalis; experiment: Antibacterial activity against Moraxella catarrhalis by agar dilution method
[10] = system: Haemophilus influenzae; experiment: Antibacterial activity against Haemophilus influenzae isolate 283 by agar dilution method
[11] = system: Staphylococcus; experiment: Antibacterial activity against methicillin resistant coagulase-negative Staphylococcus by agar dilution method
[12] = system: Enterococcus; experiment: Antibacterial activity against vancomycin-sensitive Enterococcus by agar dilution method
[13] = system: Haemophilus influenzae; experiment: Antibacterial activity against Haemophilus influenzae isolate 285 by agar dilution method
[14] = system: Haemophilus influenzae; experiment: Antibacterial activity against Haemophilus influenzae ATCC 49247 by agar dilution method
[15] = system: Staphylococcus; experiment: Antibacterial activity against methicillin-sensitive coagulase-negative Staphylococcus by agar dilution method
[16] = system: Escherichia coli; experiment: Antibacterial activity against Escherichia coli ATCC 25922 by agar dilution method

Measured: MIC

Cc1cn(C[C@H]2CN(c3ccc(N4CCN(C(=O)c5ccccc5)CC4)c(F)c3)C(=O)O2)nn1
32 µg/mL: [3] | [9]
> 64 µg/mL: [5] | [7] | [10] | [13] | [14] | [16]
4 µg/mL: [6]
2 µg/mL: [4]
1 µg/mL: all other assays above

Cc1cn(C[C@H]2CN(c3ccc(N4CCN(C(=O)C(F)(F)F)CC4)c(F)c3)C(=O)O2)nn1
2 µg/mL: [2]
8 µg/mL: [3] | [9] | [16]
4 µg/mL: [4]
64 µg/mL: [5] | [7] | [10] | [13] | [14]
1 µg/mL: all other assays above

Cc1cn(C[C@H]2CN(c3ccc(N4CCN(C(=O)C(Cl)(Cl)Cl)CC4)c(F)c3)C(=O)O2)nn1
32 µg/mL: [9]
4 µg/mL: [6]
16 µg/mL: [3]
> 64 µg/mL: [5] | [7] | [10] | [13] | [14] | [16]
1 µg/mL: all other assays above

Cc1cn(C[C@H]2CN(c3ccc(N4CCN(C(=O)C(C)C)CC4)c(F)c3)C(=O)O2)nn1
16 µg/mL: [3] | [9]
2 µg/mL: [6]
1 µg/mL: [1] | [4] | [12]
0.5 µg/mL: [2] | [8] | [11] | [15]
> 64 µg/mL: all other assays above

CCC(C)C(=O)N1CCN(c2ccc(N3C[C@H](Cn4cc(C)nn4)OC3=O)cc2F)CC1 (stereo not given in full)
2 µg/mL: [1] | [2] | [4] | [11] | [15]
4 µg/mL: [6] | [8] | [12]
32 µg/mL: [3] | [9]
> 64 µg/mL: all other assays above

Cc1cn(C[C@H]2CN(c3ccc(N4CCN(C(=O)C5CCC5)CC4)c(F)c3)C(=O)O2)nn1
> 64 µg/mL: [16]
16 µg/mL: [3]
4 µg/mL: [4] | [6]
32 µg/mL: [5] | [7] | [9] | [10] | [13] | [14]
2 µg/mL: all other assays above

Cc1cn(C[C@H]2CN(c3ccc(N4CCN(C(=O)CC(C)C)CC4)c(F)c3)C(=O)O2)nn1
64 µg/mL: [14]
32 µg/mL: [3] | [9]
4 µg/mL: [4] | [6] | [8]
> 64 µg/mL: [5] | [7] | [10] | [13] | [16]
2 µg/mL: all other assays above

CCOC(=O)N1CCN(c2ccc(N3C[C@H](Cn4cc(C)nn4)OC3=O)cc2F)CC1
4 µg/mL: [6]
16 µg/mL: [9]
32 µg/mL: [3]
64 µg/mL: [5] | [7] | [10] | [13] | [14]
> 64 µg/mL: [16]
1 µg/mL: all other assays above

Cc1cn(C[C@H]2CN(c3ccc(N4CCN(C(=O)C5CCCCC5)CC4)c(F)c3)C(=O)O2)nn1
2 µg/mL: [2] | [4]
1 µg/mL: [1] | [8] | [11] | [12] | [15]
> 64 µg/mL: [16]
4 µg/mL: [6]
32 µg/mL: all other assays above

O=C1O[C@@H](Cn2ccnn2)CN1c1ccc(N2CCOCC2)c(F)c1
> 64 µg/mL: [16]
> 16 µg/mL: [9]
1 µg/mL: [3] | [4] | [8]
32 µg/mL: [5] | [7] | [10] | [13] | [14]
0.5 µg/mL: all other assays above
